Results taken from PMC6611794, “Development of a high-throughput strategy for discovery of potent analogues of antibiotic lysocin E” (Nature Communications, 2019).
≈ marks a conversion by molar mass, not a printed value. Entries after “also recorded” stand apart in the source; their conditions may differ. Where two headings read alike, the source gives them in different places. Where a SMILES comes first, the peptide text is derived from it. Bridges are numbered along the chain shown (N, C = ends). [ ]: non-standard residue; d: D form. The star is where a group is joined. Hexanoyl(3R-OH,5-Me) = CC(C)C[C@@H](O)CC(=O)*; dNMeF = CN[C@H](Cc1ccccc1)C(=O)O

Tests used:
[1] = tested on: Staphylococcus aureus MSSA1
Method: Evaluation of antimicrobial spectra of peptides. The MIC assay was performed according to the Clinical and Laboratory Standards Institute protocols. The antimicrobial activities of the peptides were measured using the broth microdilution method.1 Serial dilutions of peptides were prepared in cation adjusted Müller Hinton Broth. Each dilution (100 µL) was dispensed to each well of the round-bottom plate to obtain final concentrations ranging from 64 µg/m L to 0.0075 µg/m L. Bacteria were grown at 37 °C overnight on Tryptic Soy Broth or Müller Hinton Broth agar plates. Bacterial inoculum was prepared by direct suspension of the colonies in 0.9% saline, and adjusted to obtain OD 625 0.08–0.13 using a spectrophotometer UV -1280 (Shimadzu). The resultant suspension was diluted with cation adjusted Müller Hinton Broth (1/20). The resultant mixture (10 µL) was inoculated to each well of the plates (approximately 5 ×10^4 CFU/well ), mixed, and incubated at 37 °C for 18 h. The MIC value was determined as the minimum concentration that inhibited growth of bacteria. To evaluate the antimicrobial activities of peptides in the presence of serum, 10% bovine calf serum in cation adjusted Müller Hinton Broth was used.

[2] = tested on: S. aureus Smith ATCC 13709; test: Antimicrobial activity assay of bead-derived peptides (one-bead, microscale); type: cell-based, Staphylococcus aureus; set-up: key to antimicrobial activity: ++: inhibition; +: partial inhibition; -: no inhibition
Method: Finally, a microscale antimicrobial assay was developed to evaluate the activity of 1 in solution phase.
Antimicrobial activity assay of bead-derived peptides. To the crude peptides in the 96-well round-bottom plate was added DMSO (1 µL/well). To the solution of peptides in each well was added a suspension of S. aureus Smith ATCC 13709 strain in 10% calf serum containing cation adjusted Müller Hinton Broth [40 µL, 2 ×10^5 colony forming units (CFU) , 21 g/L Müller Hinton Broth (Difco), 5 0 mg/L Ca2+ (adjusted with CaCl2• 2H2O), and 25 mg/L Mg 2+ (adjusted with MgCl 2•6H2O)]. The plate was incubated at 37 °C for 18 h, and the precipitation of the grown cells was examined. […]

[3] = On-bead menaquinone complexation assay (fluorescence of 2H); type: binding; details: single library bead (hit beads >1000 a.u.); average of three readings
Method: Next, the feasibility of the on-bead complexation assay was assessed using bead-linked lysocin E 30 and MK-4 (2). Our initial assay based on the finding that 1 and 2 form a red precipitate upon complexation (Supplementary Fig. 2) was not robust, because the magnitude of the red color was not proportional to the amount of captured 2 (Fig. 2b, c). We therefore developed a fluorescence-based method for quantifying 2 by reducing its naphthoquinone moiety to fluorescent hydroquinone 2H. One bead of 30 was incubated with 2 in MeOH, washed by MeOH in a microplate well, and then the bead-bound 2 was eluted under more forcing hydrophobic conditions (n-BuOH at 50 °C). The eluate containing 2 was treated with NaBH4 in n-BuOH to produce 2H[46]. The fluorescence intensity of 2H was evaluated to determine the quantity of 2 bound to one bead of 30. The method was found with a small margin of error (1026 ± 64 a.u.), indicating its high accuracy (Fig. 2a and Supplementary Fig. 3). Importantly, the structure of 1 remained intact during the complexation assay as judged by UHPLC and mass analyses.
General procedures for menaquinone complexation assay. To the bead-linked lysocin E analogues in LibraTube was added a solution of menaquinone-4 (2) in MeOH (10 mM, 1.0 mL/1000 beads). The mixture was incubated at room temperature for 12 h. A suspension of the beads in MeOH (200 beads/200 µL) was transferred to a 2.0 mL microtube.
Each bead in the microtube was transferred to each well of a 96-well filtration plate (278011, Thermo Fisher Scientific, 1 bead/well) with the solution of 2 (20 µL/bead) using a micropipette. To each well was added MeOH (400 µL), and the beads was filtered by gravity flow (× 3). The beads in the plate were dried under vacuum for 0.5–1 h. The dried beads were transferred to a 96-well PCR plate (652270, Greiner bio-one, 1 bead/well) with MeOH (20 µL/well) using a micropipette. The solution was removed under a stream of Ar at 40 °C to give the 2-bound bead-linked peptides.
To the 2-bound bead-linked peptides in the plate was added n-BuOH (30 µL/well) at room temperature .
The suspension was incubated at 50 °C for 1 h. The resultant mixture in the plate was centrifuged at 3500 × g at room temperature for 10 sec . The supernatant in each well was transferred to the corresponding well of a black polystyrene flat -bottom 96-well plate (655086, Greiner bio-one). The solution was concentrated under a stream of Ar at 40 °C to give the eluted 2.
To the above eluted 2 in the plate was added n-BuOH (25 µL/well) at room temperature. The plate was vortexed at room temperature for 10 min. To the resultant solution was added a solution of NaBH4 in n-BuOH (1.0 mM, 25 µL/well). The plate was vortexed at room temperature for 10 min. The fluorescence of menahydroquinone (2H, Ex. 250 nm/Em. 430 nm) of each well was measured at room temperature every 3 min (0, 3, and 6 min) on Gemini EM microplate reader (Molecular Devices) . The three fluorescence intensities of each bead were averaged and plotted against the bead number.
Evaluation of menaquinone complexation activities of the selected bead-linked peptides. Bead-linked peptides 30, BLP1, and BLP2 were synthesized according to the above described procedures (loading rate:
0.222 mmol/g). The bead-linked peptides were subjected to the MK complexation assay described above.
The obtained fluorescent intensities of 2H (arbitrary unit) were 1026 ± 64 for 30, 396 ± 27 for BLP1, 72.9 ± 2.0 for BLP2, and 41.6 ± 0.1 for background adsorption (no bead), respectively (Supplementary Figure 3).

MRSA4 = type: cell-based, Staphylococcus aureus; details: 18 h
Method: Antimicrobial activity assay of bead-derived peptides. […]
plate was added DMSO (1 µL/well). […]
precipitation of the grown cells was examined.
Evaluation of antimicrobial spectra of peptides. The MIC assay was performed according to the Clinical and Laboratory Standards Institute protocols. The antimicrobial activities of the peptides were measured […]
Soy Broth or Müller Hinton Broth agar plates. Bacterial inoculum was prepared by direct suspension of the […]
and incubated at 37 °C for 18 h. […]
inhibited growth of bacteria.

S. aureus = tested on: S. aureus; set-up: method as in PMID 25485686; details: S. aureus-infected mice; cited from earlier work
From the text: Lysocin E (1, Fig. 1a) was isolated from Lysobacter sp. as a new antibiotic and structurally determined to be a 37-membered depsipeptide (molecular weight = 1618 Da) with an N-methylated amide and ester linkages. The macrocyclic core of 12 residues contains four different non-proteinogenic D-amino acids (D-Arg-2/7, N-Me-D-Phe-5, D-Gln-9, D-Trp-10) and is appended with (R)-3-hydroxy-5-methylhexanamide. […] Screening of the additives ind ...

Question: With `CC[C@H](C)[C@@H]1NC(=O)[C@@H](Cc2c[nH]c3ccccc23)NC(=O)[C@@H](CCC(N)=O)NC(=O)[C@H](CCC(=O)O)NC(=O)[C@@H](CCCNC(=N)N)NC(=O)[C@H](CC(C)C)NC(=O)[C@@H](Cc2ccccc2)N(C)C(=O)CNC(=O)[C@H](CO)NC(=O)[C@@H](CCCNC(=N)N)NC(=O)[C@@H](NC(=O)C[C@H](O)CC(C)C)[C@@H](C)OC(=O)[C@H]([C@@H](C)O)NC1=O` [Peptide 1, Lysocin E] ({Hexanoyl(3R-OH,5-Me)}-T[dR]SG[dNMeF]L[dR]E[dQ][dW]IT; ester 1-C) as the molecule, how does the MIC ([1]; 10% BCS (+)) read?
Answer: 0.0625 µg/mL (≈ 0.0386 µM)

Question: And the MIC ([1]; BCS free)?
Answer: 2.0 µg/mL (≈ 1.24 µM)

Question: And the “growth inhibition of S. aureus Smith ATCC 13709” value ([2]; 10% BCS-doped Mueller Hinton Broth (40 μL), natural 1 0.04 μg per well or 85% of single bead-derived 1 (0.21 μg), duplicate)?
Answer: Complete growth inhibition; also recorded: completely inhibit the growth

Question: And the antimicrobial activity ([2]; 85% of one-bead-derived crude peptide, 40 μL Mueller Hinton Broth with 10% calf serum, 37 °C, 18 h)?
Answer: ++

Question: What about the “fluorescence intensity of 2H” value [3] of the same molecule?
Answer: 1369.78 a.u.

Question: What about the MIC (MRSA4) of the same molecule?
Answer: 0.25 µg/mL (≈ 0.155 µM)

Question: What about the ED50 (S. aureus) of the same molecule?
Answer: 0.5 mg/kg
